Data taken from patent publication US20250115872A1, “GENERATION OF BROWN ADIPOCYTES FROM HUMAN PLURIPOTENT STEM CELLS” (The Brigham and Women's Hospital, Inc., priority 2022, published 2025).

System: iPSC-BAs
Assay: Seahorse assay, oxygen consumption rate in iPSC-BAs
Assay type: cell-based, human
Procedure: FIGS. 8A-D: FIG. 8A—RT-qPCR analysis for UCP1 on 40 day old replated iPSC-derived adipogenic cultures treated with 10 μM forskolin or vehicle control DMSO treatment for 4 hours. Relative gene expression is shown as relative change to undifferentiated iPSC. Mean±SD, n=5, t-test, p<0.01. FIG. 8B—Measurement of glycerol released in culture medium 40 day old replated iPSC-derived adipogenic cultures treated with 10 μM forskolin or vehicle control DMSO treatment for 4 hours. Glycerol amount normalized using total protein amount. Mean±SD, n=4, t-test, p≤0.01. FIG. 8C—Measurement of fluorescent intensity of thermosensitive ERthermAC dye in iPSC derived precursors on day 20 of differentiation and brown adipocytes after 40 days of replating in response to 10 μM forskolin or vehicle control DMSO. Each data point represents Mean±SD, n=3, t-test, p=0.0009. FIG. 8D—Seahorse analysis to measure oxygen consumption rate in iPSC derived precursors on day 20 of differentiation and brown adipocytes after 40 days of replating in response to 1.5 μM oligomycin, 10 μM forskolin or vehicle control DMSO and 1 μM Rotenone and Antimycin (Rot/AA), respectively. Adipocytes or precursor cells were in XFe96 cell culture plates one week prior to the assay. […]
Agilent Seahorse XFe96 Analyzer was used to measure oxygen consumption in live iPSC-BAs and precursor cells following manufacturer's instructions. […] Basal respiration was measured 3 times in the assay medium. […] Cells were then treated with 10 μM Forskolin (Sigma-Aldrich, F6886) or DMSO (Sigma-Aldrich, D2650) and oxygen consumption rate (OCR) was measured for 70 minutes (12 measurements). […] Cells were automatically segmented using custom code in Fiji and number of DAPI and mCherry positive cells were quantified. […]
The process of thermogenesis is driven by the flow of protons through UCP1 in the mitochondrial inner membrane. To examine whether forskolin-induced thermogenesis in iPSC-BAs is coupled to proton leak in mitochondria, we measured oxygen consumption rate (OCR) with a Seahorse metabolic flux analyzer in 40 day-old replated cultures ([…]). […]

[1] = 1 μM Rotenone and Antimycin (Rot/AA), last step, electron transport chain block

Compound | oxygen consumption rate (OCR) (1.5 μM Oligomycin alone, versus basal respiration) | oxygen consumption rate (OCR) [1]
CC[C@H]1/C=C/C=C/C[C@@H](C)[C@H](O)[C@@](C)(O)C(=O)[C@@H](C)[C@H](O)[C@@H](C)C(=O)[C@@H](C)[C@H](O)[C@@H](C)/C=C/C(=O)O[C@@H]2[C@H](C)[C@H](CC1)O[C@]1(CC[C@H](C)[C@H](C[C@@H](C)O)O1)[C@H]2C [Oligomycin] | the OCR in cells decreased | 
C=C(C)[C@H]1Cc2c(ccc3c2O[C@@H]2COc4cc(OC)c(OC)cc4[C@@H]2C3=O)O1 [Rotenone] |  | drop of OCR
Antimycin |  | drop of OCR
